# Measurements published in patent publication US11254700B2, “GSK-3β inhibitors and use thereof in methods of treatment” (UNIVERSITY OF HAWAII, priority 2017, dated 2022).
# Target: GSK-3β (Homo sapiens, UniProt P49841)
# Test: Kinase luminescent assay (ADP-Glo), GSK-3β inhibition
# Assay type: biochemical
# Conditions: 25 μM ATP, 1 hour, room temperature; mean of quadruplicate of two experiments; read-out: IC50 against GSK-3β
# Experimental: Kinase Luminescent Assay.
# Kinase inhibition was assessed with the ADP-Glo Kinase Assay. […] The reaction mixture was incubated for 1 hour at room temperature followed by the addition of the ADP-Glo′ reagents according to the manufacturer's protocol. The kinase inhibitor staurosporine was used at 1 μM as a reference control. Each data point was collected in quadruplicate of two independent experiments.
# Sequence of GSK-3β (P49841 whole entry): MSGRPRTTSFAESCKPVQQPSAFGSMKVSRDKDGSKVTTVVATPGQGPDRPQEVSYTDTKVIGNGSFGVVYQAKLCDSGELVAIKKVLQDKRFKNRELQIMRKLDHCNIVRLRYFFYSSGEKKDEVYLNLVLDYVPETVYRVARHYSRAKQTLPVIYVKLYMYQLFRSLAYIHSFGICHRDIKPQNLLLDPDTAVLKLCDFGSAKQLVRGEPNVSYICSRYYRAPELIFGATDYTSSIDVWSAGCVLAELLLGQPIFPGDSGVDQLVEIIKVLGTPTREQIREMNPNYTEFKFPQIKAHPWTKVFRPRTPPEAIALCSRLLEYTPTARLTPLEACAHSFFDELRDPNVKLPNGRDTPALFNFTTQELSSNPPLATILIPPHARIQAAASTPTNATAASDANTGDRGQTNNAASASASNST
row,SMILES,IC50 [µM]
1,"O=c1cc(-c2ccc(O)c(O)c2)oc2c([C@@H]3O[C@H](CO)[C@@H](O)[C@H](O)[C@H]3O)c(O)cc(O)c12 [Compound 3, orientin, reference compound]",5153 ± 31
2,"COc1ccc(-c2cc(=O)c3c(OC)c([C@@H]4O[C@H](CO)[C@@H](O)[C@H](O)[C@H]4O)c(OC)cc3o2)cc1OC [Compound 5, 2-(3,4-Dimethoxyphenyl)-5,7-dimethoxy-6-((2S,3R,4R,5S,6R)-3,4,5-trihydroxy-6-(hydroxymethyl)tetrahydro-2H-pyran-2-yl)-4H-chromen-4-one]",239.2 ± 1.2
3,"COc1ccc(-c2cc(=O)c3c(OC)c([C@@H]4O[C@H](C(=O)O)[C@@H](O)[C@H](O)[C@H]4O)c(OC)cc3o2)cc1OC [Compound 6, (2S,3S,4R,5R,6S)-6-(2-(3,4-Dimethoxyphenyl)-5,7-dimethoxy-4-oxo-4H-chromen-6-yl)-3,4,5-trihydroxytetrahydro-2H-pyran-2-carboxylic acid]",237.3 ± 1.4
4,"COC(=O)[C@H]1O[C@@H](c2c(OC)cc3oc(-c4ccc(OC)c(OC)c4)cc(=O)c3c2OC)[C@H](O)[C@@H](O)[C@@H]1O [Compound 7, Methyl (2S,3S,4R,5R,6S)-6-(2-(3,4-dimethoxyphenyl)-5,7-dimethoxy-4-oxo-4H-chromen-6-yl)-3,4,5-trihydroxytetrahydro-2H-pyran-2-carboxylate]",135
5,"CCCNC(=O)[C@H]1O[C@@H](c2c(OC)cc3oc(-c4ccc(OC)c(OC)c4)cc(=O)c3c2OC)[C@H](O)[C@@H](O)[C@@H]1O [Compound 8, (2S,3S,4R,5R,6S)-6-(2-(3,4-Dimethoxyphenyl)-5,7-dimethoxy-4-oxo-4H-chromen-6-yl)-3,4,5-trihydroxy-N-propyltetrahydro-2H-pyran-2-carboxamide]",29.2 ± 1.1
6,"CCCCNC(=O)[C@H]1O[C@@H](c2c(OC)cc3oc(-c4ccc(OC)c(OC)c4)cc(=O)c3c2OC)[C@H](O)[C@@H](O)[C@@H]1O [Compound 10, (2S,3S,4R,5R,6S)-6-(2-(3,4-Dimethoxyphenyl)-5,7-dimethoxy-4-oxo-4H-chromen-6-yl)-3,4,5-trihydroxy-N-butyltetrahydro-2H-pyran-2-carboxamide]",33.3 ± 1.1
7,"COc1ccc(-c2cc(=O)c3c(OC)c([C@@H]4O[C@H](C(=O)NCC(C)C)[C@@H](O)[C@H](O)[C@H]4O)c(OC)cc3o2)cc1OC [Compound 11, (2S,3S,4R,5R,6S)-6-(2-(3,4-Dimethoxyphenyl)-5,7-dimethoxy-4-oxo-4H-chromen-6-yl)-3,4,5-trihydroxy-N-isobutyltetrahydro-2H-pyran-2-carboxamide]",31.1 ± 1.2
8,"CCCCCNC(=O)[C@H]1O[C@@H](c2c(OC)cc3oc(-c4ccc(OC)c(OC)c4)cc(=O)c3c2OC)[C@H](O)[C@@H](O)[C@@H]1O [Compound 12, (2S,3S,4R,5R,6S)-6-(2-(3,4-Dimethoxyphenyl)-5,7-dimethoxy-4-oxo-4H-chromen-6-yl)-3,4,5-trihydroxy-N-pentyltetrahydro-2H-pyran-2-carboxamide]",28 ± 1.1
9,"CCCCCCNC(=O)[C@H]1O[C@@H](c2c(OC)cc3oc(-c4ccc(OC)c(OC)c4)cc(=O)c3c2OC)[C@H](O)[C@@H](O)[C@@H]1O [Compound 13, (2S,3S,4R,5R,6S)-6-(2-(3,4-Dimethoxyphenyl)-5,7-dimethoxy-4-oxo-4H-chromen-6-yl)-3,4,5-trihydroxy-N-hexyltetrahydro-2H-pyran-2-carboxamide]",9.4 ± 0.9
10,"COc1ccc(-c2cc(=O)c3c(OC)c([C@@H]4O[C@H](C(=O)NC5CC5)[C@@H](O)[C@H](O)[C@H]4O)c(OC)cc3o2)cc1OC [Compound 14, (2S,3S,4R,5R,6S)—N-Cyclopropyl-6-(2-(3,4-dimethoxyphenyl)-5,7-dimethoxy-4-oxo-4H-chromen-6-yl)-3,4,5-trihydroxytetrahydro-2H-pyran-2-carboxamide]",25.8 ± 1.1
11,"COc1ccc(-c2cc(=O)c3c(OC)c([C@@H]4O[C@H](C(=O)NC5CCC5)[C@@H](O)[C@H](O)[C@H]4O)c(OC)cc3o2)cc1OC [Compound 15, (2S,3S,4R,5R,6S)—N-Cyclobutyl-6-(2-(3,4-dimethoxyphenyl)-5,7-dimethoxy-4-oxo-4H-chromen-6-yl)-3,4,5-trihydroxytetrahydro-2H-pyran-2-carboxamide]",61.9 ± 1.9
12,"COc1ccc(-c2cc(=O)c3c(OC)c([C@@H]4O[C@H](C(=O)NC5CCCC5)[C@@H](O)[C@H](O)[C@H]4O)c(OC)cc3o2)cc1OC [Compound 16, (2S,3S,4R,5R,6S)—N-Cyclopentyl-6-(2-(3,4-dimethoxyphenyl)-5,7-dimethoxy-4-oxo-4H-chromen-6-yl)-3,4,5-trihydroxytetrahydro-2H-pyran-2-carboxamide]",13.1 ± 1.1
13,"COc1ccc(-c2cc(=O)c3c(OC)c([C@@H]4O[C@H](C(=O)NCC5CCCCC5)[C@@H](O)[C@H](O)[C@H]4O)c(OC)cc3o2)cc1OC [Compound 18, (2S,3S,4R,5R,6S)—N-(Cyclohexylmethyl)-6-(2-(3,4-dimethoxyphenyl)-5,7-dimethoxy-4-oxo-4H-chromen-6-yl)-3,4,5-trihydroxytetrahydro-2H-pyran-2-carboxamide]",26 ± 1.2
14,"COc1ccc(-c2cc(=O)c3c(OC)c([C@@H]4O[C@H](C(=O)NC56CC7CC(CC(C7)C5)C6)[C@@H](O)[C@H](O)[C@H]4O)c(OC)cc3o2)cc1OC [Compound 19, (2S,3S,4R,5R,6S)—N-(Adamantan-1-yl)-6-(2-(3,4-dimethoxyphenyl)-5,7-dimethoxy-4-oxo-4H-chromen-6-yl)-3,4,5-trihydroxytetrahydro-2H-pyran-2-carboxamide]",33.5 ± 0.8
15,"COc1ccc(-c2cc(=O)c3c(OC)c([C@@H]4O[C@H](C(=O)Nc5ccccc5)[C@@H](O)[C@H](O)[C@H]4O)c(OC)cc3o2)cc1OC [Compound 20, (2S,3S,4R,5R,6S)-6-(2-(3,4-Dimethoxyphenyl)-5,7-dimethoxy-4-oxo-4H-chromen-6-yl)-3,4,5-trihydroxy-N-phenyltetrahydro-2H-pyran-2-carboxamide]",19.7 ± 1.1
16,"COc1ccc(-c2cc(=O)c3c(OC)c([C@@H]4O[C@H](C(=O)Nc5nccs5)[C@@H](O)[C@H](O)[C@H]4O)c(OC)cc3o2)cc1OC [Compound 23, (2S,3S,4R,5R,6S)-6-(2-(3,4-Dimethoxyphenyl)-5,7-dimethoxy-4-oxo-4H-chromen-6-yl)-3,4,5-trihydroxy-N-(thiazol-2-yl)tetrahydro-2H-pyran-2-carboxamide]",35.1 ± 1
17,"COc1ccc(-c2cc(=O)c3c(OC)c([C@@H]4O[C@H](C(=O)NCCF)[C@@H](O)[C@H](O)[C@H]4O)c(OC)cc3o2)cc1OC [Compound 26, (2S,3S,4R,5R,6S)-6-(2-(3,4-Dimethoxyphenyl)-5,7-dimethoxy-4-oxo-4H-chromen-6-yl)-3,4,5-trihydroxy-N-(2-fluoroethyl)tetrahydro-2H-pyran-2-carboxamide]",34.8 ± 1
18,"COc1ccc(-c2cc(=O)c3c(OC)c([C@@H]4O[C@H](C(=O)N[C@H](C)C(F)(F)F)[C@@H](O)[C@H](O)[C@H]4O)c(OC)cc3o2)cc1OC [Compound 31, (2S,3S,4R,5R,6S)-6-(2-(3,4-Dimethoxyphenyl)-5,7-dimethoxy-4-oxo-4H-chromen-6-yl)-3,4,5-trihydroxy-N—((R)-1,1,1-trifluoropropan-2-yl) tetrahydro-2H-pyran-2-carboxamide]",< 20

# Same assay, conditions: vs isoorientin 1
row,SMILES,increase of potency against GSK-3β relative to 1 [fold]
1,"COC(=O)[C@H]1O[C@@H](c2c(OC)cc3oc(-c4ccc(OC)c(OC)c4)cc(=O)c3c2OC)[C@H](O)[C@@H](O)[C@@H]1O [Compound 7, Methyl (2S,3S,4R,5R,6S)-6-(2-(3,4-dimethoxyphenyl)-5,7-dimethoxy-4-oxo-4H-chromen-6-yl)-3,4,5-trihydroxytetrahydro-2H-pyran-2-carboxylate]",1.37
